Source: patent US7169559B2, “LDL receptor-related proteins 1 and 2 and treatment of bone or cartilage conditions” (Fonterra Corporate Research and Development Ltd., priority 2002, dated 2007)

Tests used:
bacterial = details: cited from earlier work
[1] = test system: cultured osteoblastic cells; test: osteoblast proliferation (mitogenic/osteogenic effect); format: cell-based, rat, mouse, and human
Method: Osteoblasts were isolated from 20-day old fetal rat calvariae as previously described (Cornish et al. (1999) Amer. J. Physiol-Endocrinol. Metab. 277:E779–E783). Briefly, calvariae were excised and the frontal and parietal bones, free of suture and periosteal tissue, were collected. After washing, the calvariae were treated twice with 3 mL of 1 mg/mL collagenase for 7 minutes at 37° C. After discarding the supernatants from these two digestions, the calvariae were treated a further twice with 3 mL of 2 mg/mL collagenase (30 mins, 37° C.). The supernatants of the latter two digestions were pooled, centrifuged, and the cells washed. Cells were grown to confluence and then subcultured into 24 well plates. Cells were growth arrested in minimum essential medium (MEM)/0.1% bovine serum albumin for 24 h before harvest.
The human osteoblast-like osteosarcoma cell line SaOS-2 was maintained in DMEM (GIBCO 12100-046) supplemented with 2.2 g/L NaHCO3, 10% FBS, and 10 ml/L penicillin-streptomycin (GIBCO 15140-122). Cells were plated in 75 cm^2 flasks and when confluent used for total RNA isolation or proliferation assays.

Substance | bacterial killing (bacterial) | osteogenic effect / osteogenic activity [1] | mitogenic effect on osteoblasts [1]
Lactoferricin | effective in bacterial killing | only a modest osteogenic effect | –
Transferrin: Transferrin, compared with lactoferrin as mitogen on osteoblasts [reference compound] | – | – | not a potent mitogen
